Experiments:
[1] = test system: SH-SY5Y cells; design: method as in PMID 33609514; conditions: cited from earlier work
[2] = test system: Caco-2 cell monolayer; design: method as in PMID 32234388; conditions: cited from earlier work
[3] = test system: 2D-HLCs; test: Metabolite formation in 2D-HLCs by GC-MS; assay type: in vitro ADME, human; conditions: 1 mM, 6 h
Method: (§1) Regarding the study of methylone and pentedrone metabolite biosynthesis, in 2D-HLCs and 3D-HLCs, at the D17 of the HLCs differentiation, the cells were seeded in 6-well plates in 1 mL of culture medium at a density of 2.0 × 10^5 cells/well and 5.0 × 10^5 cells/well in 2D and 3D cultures, respectively. At D34, 2D-HLCs and 3D-HLCs were exposed to 1 mM of each enantiomer diluted in IMDM. Upon 6 h of incubation, the IMDM was removed and the pellets were quenched with 2 mL of ice-cold acetonitrile and scraped. The quenched solutions were centrifuged for 10 min at 4 °C. After the addition of methcathinone (internal standard) 100 µg/mL, the supernatants were derivatized with TFAA and analyzed by GC–MS [2, 41].
(§2) To study pentedrone and methylone metabolic profiles, we set up a methodology for the identification of pentedrone and methylone phase I metabolites based on a GC–MS methodology developed by Araujo et al. and Uralets et al. with some adaptations. Briefly, samples from the metabolic assays (200 μL) were evaporated to dryness under nitrogen flow. Then, 50 µL of ethyl acetate and 50 µL of TFAA (derivatizing agent) were added to the dried residue. Incubation was performed at 65 °C for 15 min. After cooling to room temperature, the extract was dried under nitrogen flow. The residue obtained was dissolved in 100 μL of ethyl acetate, and 2 μL was injected into the GC–MS apparatus.
(§3) GC–MS analysis was performed with a 436-GC model (Bruker Daltonics, Billerica, MA, USA) coupled to an EVOQ triple quadrupole mass spectrometer (Bruker Daltonics) and a Bruker MS workstation software version 8.2. The chromatographic separation was accomplished using a fused silica capillary column (Rxi-5Sil MS; 30 m × 0.25 mm × 0.25 μm; Restek Corporation, U.S., Bellefonte, PA, USA). The carrier gas was helium C-60 (Gasin, Portugal), at a constant flow of 1 mL/min. Injections were performed in split mode, with a ratio of 1/20. The injector port was heated to 250 °C. The initial column temperature was 80 °C, followed by a temperature increase of 15 °C/min to 150 °C and 10 °C/min to 300 °C. The MS detector was operated in EI mode (70 eV). The temperature of the transfer line, manifold and EI were 280, 40, and 270 °C, respectively. Data acquisition was performed in full scan mode with a mass range between 50 and 800 m/z at a scan rate of 8 scans/s. The emission current was 40 µA. Ionization was maintained off during the first 1.5 min to avoid solvent overloading. Total separation run time was 20 min.
The analysis was initially performed in full scan mode. […] For that, specific metabolites of methylone and pentedrone, already identified in previous studies, were selected to postulate their mass fragmentation according to their chemical structures (Figure 11) for posterior analysis using the specific ions (m/z in SIM mode) to identify and confirm the metabolite peaks. In SIM mode the selected m/z ions were: IS—m/z 77, 105, 110, and 154; methylone—m/z 121, 149, 154, and 303; nor-methylone—m/z 121, 140, 149, 168, 289, and 260; dihydromethylone—m/z 121, 154, 247, 280, and 401; DHMC—m/z 154, 182, 209, 237, and 391; N-hydroxymethylone—m/z 121, 149, 170, 198, and 319; nor-pentedrone—m/z 77, 105, 126, 168, and 273; dihydropentedrone—m/z 140, 182, 203, 272, and 385; and pentedrone—m/z 77, 105, 140, and 182.

[4] = test system: 3D-HLCs; test: Metabolite formation in 3D-HLCs by GC-MS; assay type: in vitro ADME, human; conditions: 1 mM, 6 h
Method: as §1, §2, §3
The analysis was initially performed in full scan mode. […]

[5] = test system: 3D-HLCs (human stem-cell-derived hepatocyte-like cells); test: Cell viability (CellTiter-Glo 3D) in 3D spheroid HLCs; assay type: cell-based; conditions: 24 h; for concentrations at which cytotoxicity was observed: racemate, 3D-HLCs, compared to control cells
Method: (§4) The hnMSCs isolated from human umbilical cord stroma were fully characterized as described elsewhere and expanded in Eagle’s minimum essential medium—alpha modification (α-MEM) supplemented with 10% (v/v) of fetal bovine serum (FBS; Gibco, Paisley, UK). For generating HLCs, a three-step differentiation protocol was applied to hnMSCs, as detailed previously. Briefly, hnMSCs were seeded at a density of 1.5 × 10^5 cells/cm^2 in a rat-tail collagen (0.2 mg/mL) coated surface plates. At day 17 (D17) of differentiation, cells were trypsinized and reinoculated in Iscove’s modified Dulbecco’s medium (IMDM) with 8 ng/mL oncostatin M (OSM; Peprotech, Rocky Hill, NJ, USA), 1 µM dexamethasone, 1% dimethyl sulfoxide (DMSO) and 1% insulin-transferrin-selenium solution (Gibco, Grand Island, NY, USA), 20 µM of 5-azacytidine, and 5% (v/v) FBS into (i) ultra-low attachment (ULA; VWR International, Radnor, PA, USA) plates (5 × 10^5 cells/mL) to obtain a 3D spheroid culture or (ii) 2D culture plates pre-coated with collagen (2 × 10^4 cells/cm^2). Medium was changed 24 h after inoculation to remove 5-azacytidine and FBS. Cells were maintained until D34 in this medium, which was replaced every 3 days.
(§5) The cytotoxicity of the racemic mixtures (0.25, 0.5, 1.0, 2.0, 3.0, 4.0, 6.0, 8.0, 10.0, and 20.0 mM) and enantiomers (0.5 and 1.0 mM) of pentedrone and methylone were evaluated in both 2D monolayer and 3D spheroid cultures of HLCs, maintained as described above with slight changes. Briefly, at D17 of differentiation, cells were seeded in 96-well plates in 200 μL of culture medium at a density of 6.4 × 10^3 cells/well and 1.6 × 10^4 cells/well in 2D and 3D cultures, respectively. At D34, HLCs cultured in 2D and 3D were exposed to the abovementioned racemic mixtures and enantiomers diluted in IMDM. Cell viability was measured upon 24 h of incubation with the compounds using the CellTiter-Glo® 3D Cell Viability Assay (Promega, Madison, WI, USA), according to manufacturer instructions. Five percent DMSO was used as negative control and IMDM as positive control. IC50 was calculated for the racemic mixtures using a nonlinear regression fit for the Log10 transformation of the concentration values by using GraphPad Prism version 7.0 (GraphPad Software, La Jolla, CA, USA). Three independent experiments were performed.

[6] = as above; assay type: cell-based, human; conditions: human; racemate, 3D-HLCs, 24 h exposure, 0-20.0 mM; read-out: EC50 (cytotoxicity)
Method: as §4, §5

[7] = cited from earlier work
[8] = test system: human liver microsomes (HLM); test: Metabolism in ultra-pool human liver microsomes by GC-MS; assay type: in vitro ADME; conditions: HLM 1 mg protein/mL, 50 µM enantiomer, 0-60 min
Method: The metabolism of methylone and pentedrone was initially evaluated by incubation with ultra-pool human liver microsomes (HLM) at a final assay concentration of 1 mg protein/mL. All experiments were performed in duplicate. The incubation mixture with the HLM consisted of 1.3 mM NADP^+, 3.3 mM glucose-6-phosphate, 3.3 mM MgCl2, 0.4 IU/mL glucose-6-phosphate dehydrogenase, and 0.05 mM sodium citrate in 0.1 M phosphate buffer at pH 7.4. The incubation mixture with each drug was pre-incubated 10 min at 37 °C before the experiment was started with the addition of the HLM. All microsomes assays were incubated with 50 µM of each enantiomer in a final volume of 1 mL at 37 °C. At the time points 0, 5, 10, 20, 30, 40, 50, and 60 min, 100 µL aliquots of the incubations were quenched with 100 µL of ice-cold acetonitrile and methcathinone (internal standard) 100 µg/mL. The quenched solutions were centrifuged for 10 min at 4 °C and the supernatants were extracted with ethyl acetate after previous pH correction (pH = 11 for pentedrone and pH = 13 for methylone).
To study pentedrone and methylone metabolic profiles, we set up a methodology for the identification of pentedrone and methylone phase I metabolites based on a GC–MS methodology developed by Araujo et al. and Uralets et al. with some adaptations. […]

[9] = Cell viability (CellTiter-Glo 3D) in 2D monolayer HLCs; assay type: cell-based, human; conditions: human; racemate, 2D-HLCs, 24 h exposure, 0-20.0 mM; read-out: EC50 (cytotoxicity)
Method: as §4, §5

[10] = test system: 2D-HLCs (human stem-cell-derived hepatocyte-like cells); test: as above; assay type: cell-based; conditions: racemate, 24 h, 0-20.0 mM
Method: as §4, §5

[11] = test system: human liver microsomes (HLM); conditions: cited from earlier work
[12] = test system: primary rat hepatocytes (PRH); conditions: read-out: EC50 (cytotoxic effects), racemic; cited from earlier work

| Molecule | enantioselectivity in cytotoxicity [1] | enantioselectivity in intestinal absorption (permeability) [2] | preferential metabolic route of the enantiomer [3] | preferential metabolic route of the enantiomer [4] | concentrations at which cytotoxicity was observed [5] | EC50 at 24 h [6] [mM] | metabolite with the highest formation [4] | metabolite with the highest formation [3] | liver-to-blood ratio [7] | phase I metabolites identified [8] | EC50 at 24 h [9] [mM] | cytotoxicity compared to control cells [10] | EC50 [12] [mM] | other results |
| --- | --- | --- | --- | --- | --- | --- | --- | --- | --- | --- | --- | --- | --- | --- |
| CCC[C@H](NC)C(=O)c1ccccc1 [S-(+)-pentedrone] | most cytotoxic |  |  |  |  |  |  |  |  |  |  |  |  |  |
| S-(−)-methylone |  | most permeable | preferentially metabolized via N-demethylation |  |  |  |  |  |  |  |  |  |  |  |
| CN[C@H](C)C(=O)c1ccc2c(c1)OCO2 [R-(+)-methylone] | most cytotoxic |  | preferentially metabolized by O-demethylation and N-hydroxylation | preferentially metabolized by all metabolic routes, except for O-demethylation |  |  |  |  |  |  |  |  |  |  |
| CNC(C)C(=O)c1ccc2c(c1)OCO2 (centres unmarked) [methylone] |  |  |  |  | > 3000 µM | 5.2 | N-Hydroxymethylone | N-Hydroxymethylone | ≤ 3 | N-hydroxymethylone, DHMC, dihydromethylone, and nor-methylone | 4.8 | significant cytotoxicity for all concentrations tested | 1.6 | enzymes metabolizing the drug [11]: initially metabolized by CYP2D6, with minor contributions of CYP1A2, CYP2B6, and CYP2C19 |
| CCC[C@@H](NC)C(=O)c1ccccc1 [R-(−)-pentedrone] |  | most permeable | preferentially metabolized by all metabolic routes | preferentially metabolized by β-keto reduction |  |  |  |  |  |  |  |  |  | enantioselectivity in cytotoxicity ([5]; enantiomers at 1 mM, 3D cultures): most cytotoxic enantiomer |
| CCCC(NC)C(=O)c1ccccc1 (centres unmarked) [pentedrone] |  |  |  |  | higher than 1.0 mM | 3.6 | dihydropentedrone | dihydropentedrone | up to 11 | dihydropentedrone and nor-pentedrone | 2.8 | significant cytotoxicity for all concentrations tested | 0.7 |  |

Source: article PMC8953427, “Enantioselectivity of Pentedrone and Methylone on Metabolic Profiling in 2D and 3D Human Hepatocyte-like Cells” (Pharmaceuticals, 2022)
